Values belong to the compound of their own block, whether it stands above or below them.
Target: MDM2 (Homo sapiens, UniProt Q00987)
Assay: MDM2 binding screen: displacement of fluorescent p53 peptide probe FP53 (fluorescence polarization)
Conditions: for fraction fluorescent probe displaced, Screen: initial screen; for fraction fluorescent probe displaced, Screen / fraction fluorescent probe displaced, Replicate: crude macrocycle reactions
Protocol: We screened Library 2 in 384-microwell plates by dispensing the target protein MDM2 and reporter peptide into the wells containing the macrocycle reactions.
The products were screened for displacement of a p53-based fluorescent peptide from human MDM2. Final macrocycle concentrations were 10 µM. For each macrocycle, the MDM2 binding was measured once.
One fluorescence anisotropy reading was taken with a Tecan Infinite F200 Pro fluorescence plate reader (excitation at 485 nm, emission at 535 nm) at 25 °C. Data was collected and exported using the Tecan Infinite M200 Pro instrument software. The data was analyzed by Excel (version 2016).

[1] = crude reaction of macrocycle scaffold with Acid 25, (initial screen)
[2] = crude reaction of macrocycle scaffold with Acid 25, replicate
[3] = crude reaction of macrocycle scaffold with Acid 91, (initial screen)
[4] = crude reaction of macrocycle scaffold with Acid 91, replicate

Sequence of MDM2 (Q00987 whole entry): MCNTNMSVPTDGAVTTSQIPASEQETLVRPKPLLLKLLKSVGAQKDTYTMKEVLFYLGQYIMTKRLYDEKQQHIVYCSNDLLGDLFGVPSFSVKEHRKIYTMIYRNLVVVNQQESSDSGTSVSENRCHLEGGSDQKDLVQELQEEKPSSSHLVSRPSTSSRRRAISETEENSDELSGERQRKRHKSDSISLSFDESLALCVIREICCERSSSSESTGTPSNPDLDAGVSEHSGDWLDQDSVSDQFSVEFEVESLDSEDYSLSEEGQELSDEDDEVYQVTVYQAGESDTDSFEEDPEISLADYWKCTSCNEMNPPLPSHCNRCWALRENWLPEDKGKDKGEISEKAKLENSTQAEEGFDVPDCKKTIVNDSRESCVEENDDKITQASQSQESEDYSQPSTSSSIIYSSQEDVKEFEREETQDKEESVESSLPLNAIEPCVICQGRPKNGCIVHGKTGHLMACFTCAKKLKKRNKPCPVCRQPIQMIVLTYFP

SMILES: O=C1CCSSCCNC(=O)C2CC(NC(=O)c3ccc(Cl)cc3)CN2C(=O)C(Cc2c[nH]c3ccccc23)NC(=O)CCN1 (stereo not shown) [X B2 W D5 Acid 25]
fraction fluorescent probe displaced, Screen (Acid 25): 0.19
fraction fluorescent probe displaced, Replicate (Acid 25, replicate): 0.22

SMILES: O=C1CCSSCCNC(=O)C2(CCN(C(=O)c3ccc(Cl)s3)CC2)NC(=O)[C@H](Cc2c[nH]c3ccccc23)NC(=O)CCN1 [X B2 W D6 Acid 14]
fraction fluorescent probe displaced, Screen (Acid 14): 0.14
fraction fluorescent probe displaced, Replicate (Acid 14, replicate): 0.0465

SMILES: O=C1CCSSCCNC(=O)C2(CCN(C(=O)c3ccc(Cl)cc3)CC2)NC(=O)[C@H](Cc2c[nH]c3ccccc23)NC(=O)CCN1 [X B2 W D6 Acid 25]
fraction fluorescent probe displaced, Screen (Acid 25): 0.0244
fraction fluorescent probe displaced, Replicate (Acid 25, replicate): 0.0211

SMILES: O=C1CCSSCCNC(=O)C2(CCN(C(=O)C=Cc3ccccc3)CC2)NC(=O)C(Cc2c[nH]c3ccccc23)NC(=O)CCN1 (stereo not shown) [X B2 W D6 Acid 91]
fraction fluorescent probe displaced, Screen (Acid 91): 0.0563
fraction fluorescent probe displaced, Replicate (Acid 91, replicate): 0.07

SMILES: O=C1CCSSCCNC(=O)C2CN(C(=O)c3ccc(Cl)cc3)CCN2C(=O)C(Cc2c[nH]c3ccccc23)NC(=O)CCN1 (stereo not shown) [X B2 W D7 Acid 25]
fraction fluorescent probe displaced, Screen (Acid 25): 0.0569
fraction fluorescent probe displaced, Replicate (Acid 25, replicate): 0.10

SMILES: O=C(NCC1NC(=O)C2CCCN(C2)C(=O)CCSSCCNC(=O)C(Cc2ccccc2)NC1=O)c1ccc(Cl)s1 (stereo not shown) [X B4 D3 F Acid 14]
fraction fluorescent probe displaced, Screen (Acid 14): 0.14
fraction fluorescent probe displaced, Replicate (Acid 14, replicate): 0.15

SMILES: O=C(NC[C@@H]1NC(=O)[C@H]2CCCN(C2)C(=O)CCSSCCNC(=O)[C@H](Cc2c[nH]c3ccccc23)NC1=O)c1ccc(Cl)s1 [X B4 D3 W Acid 14]
fraction fluorescent probe displaced, Screen (Acid 14): 0.63
fraction fluorescent probe displaced, Replicate (Acid 14, replicate): 0.58

SMILES: O=C(C=Cc1ccccc1)NCC1NC(=O)C2CCCN(C2)C(=O)CCSSCCNC(=O)C(Cc2c[nH]c3ccccc23)NC1=O (stereo not shown) [X B4 D3 W Acid 91]
fraction fluorescent probe displaced, Screen (Acid 91): 0.81
fraction fluorescent probe displaced, Replicate (Acid 91, replicate): 0.49

SMILES: O=C(N[C@H]1C[C@H]2C(=O)N[C@@H](Cc3c[nH]c4ccccc34)C(=O)NCCSSCCC(=O)N3CCC[C@@H](C3)C(=O)N2C1)c1ccc(Cl)s1 [X B4 D5 W Acid 14]
fraction fluorescent probe displaced, Screen (Acid 14): 0.11
fraction fluorescent probe displaced, Replicate (Acid 14, replicate): 0.0211

SMILES: O=C1NCCSSCCC(=O)N2CCCC(C2)C(=O)N2CCN(C(=O)c3ccc(Cl)cc3)CC2C(=O)NC1Cc1c[nH]c2ccccc12 (stereo not shown) [X B4 D7 W Acid 25]
fraction fluorescent probe displaced, Screen (Acid 25): 0.32
fraction fluorescent probe displaced, Replicate (Acid 25, replicate): 0.17

SMILES: O=C(NC[C@@H]1NC(=O)[C@H](Cc2ccccc2)NC(=O)[C@H]2CCCN(C2)C(=O)CCSSCCNC1=O)c1ccc(Cl)s1 [X B4 F D3 Acid 14]
fraction fluorescent probe displaced, Screen (Acid 14): 0.08
fraction fluorescent probe displaced, Replicate (Acid 14, replicate): 0.10

SMILES: O=C(C=Cc1ccccc1)NCC1NC(=O)C(Cc2ccccc2)NC(=O)C2CCCN(C2)C(=O)CCSSCCNC1=O (stereo not shown) [X B4 F D3 Acid 91]
fraction fluorescent probe displaced, Screen (Acid 91): 0.03
fraction fluorescent probe displaced, Replicate (Acid 91, replicate): -0.00827

SMILES: O=C(C=Cc1ccccc1)NC1CC2C(=O)NCCSSCCC(=O)N3CCCC(C3)C(=O)NC(Cc3ccccc3)C(=O)N2C1 (stereo not shown) [X B4 F D5 Acid 91]
fraction fluorescent probe displaced, Screen (Acid 91): -0.05
fraction fluorescent probe displaced, Replicate (Acid 91, replicate): -0.0333

SMILES: O=C1NC(Cc2ccccc2)C(=O)N2CCN(C(=O)C=Cc3ccccc3)CC2C(=O)NCCSSCCC(=O)N2CCCC1C2 (stereo not shown) [X B4 F D7 Acid 91]
fraction fluorescent probe displaced, Screen (Acid 91): 0.00268
fraction fluorescent probe displaced, Replicate (Acid 91, replicate): -0.00827

SMILES: O=C(NC[C@@H]1NC(=O)[C@H](Cc2c[nH]c3ccccc23)NC(=O)[C@H]2CCCN(C2)C(=O)CCSSCCNC1=O)c1ccc(Cl)s1 [X B4 W D3 Acid 14]
fraction fluorescent probe displaced, Screen (Acid 14): 0.11
fraction fluorescent probe displaced, Replicate (Acid 14, replicate): 0.10

SMILES: O=C(NCC1NC(=O)C(Cc2c[nH]c3ccccc23)NC(=O)C2CCCN(C2)C(=O)CCSSCCNC1=O)c1ccc(Cl)cc1 (stereo not shown) [X B4 W D3 Acid 25]
fraction fluorescent probe displaced, Screen (Acid 25): 0.09
fraction fluorescent probe displaced, Replicate (Acid 25, replicate): 0.22

SMILES: O=C(/C=C/c1ccccc1)NC[C@@H]1NC(=O)[C@H](Cc2c[nH]c3ccccc23)NC(=O)[C@H]2CCCN(C2)C(=O)CCSSCCNC1=O [X B4 W D3 Acid 91]
fraction fluorescent probe displaced, Screen (Acid 91): 0.16
fraction fluorescent probe displaced, Replicate (Acid 91, replicate): 0.09

SMILES: O=C(N[C@H]1C[C@H]2C(=O)NCCSSCCC(=O)N3CCC[C@@H](C3)C(=O)N[C@@H](Cc3c[nH]c4ccccc34)C(=O)N2C1)c1ccc(Cl)s1 [X B4 W D5 Acid 14]
fraction fluorescent probe displaced, Screen (Acid 14): 0.08
fraction fluorescent probe displaced, Replicate (Acid 14, replicate): -0.03

SMILES: O=C(NC1CC2C(=O)NCCSSCCC(=O)N3CCCC(C3)C(=O)NC(Cc3c[nH]c4ccccc34)C(=O)N2C1)c1ccc(Cl)cc1 (stereo not shown) [X B4 W D5 Acid 25]
fraction fluorescent probe displaced, Screen (Acid 25): 0.15
fraction fluorescent probe displaced, Replicate (Acid 25, replicate): 0.20

SMILES: O=C(C=Cc1ccccc1)NC1CC2C(=O)NCCSSCCC(=O)N3CCCC(C3)C(=O)NC(Cc3c[nH]c4ccccc34)C(=O)N2C1 (stereo not shown) [X B4 W D5 Acid 91]
fraction fluorescent probe displaced, Screen (Acid 91): 0.0563
fraction fluorescent probe displaced, Replicate (Acid 91, replicate): 0.12

SMILES: O=C1NC(Cc2c[nH]c3ccccc23)C(=O)N2CCN(C(=O)c3ccc(Cl)s3)CC2C(=O)NCCSSCCC(=O)N2CCCC1C2 (stereo not shown) [X B4 W D7 Acid 14]
fraction fluorescent probe displaced, Screen (Acid 14): 0.14
fraction fluorescent probe displaced, Replicate (Acid 14, replicate): 0.25

SMILES: O=C1CCSSCCNC(=O)C(Cc2ccccc2)NC(=O)C(CNC(=O)c2ccc(Cl)s2)NC(=O)c2cccc(c2)CN1 (stereo not shown) [X B5 D3 F Acid 14]
fraction fluorescent probe displaced, Screen (Acid 14): -0.00483
fraction fluorescent probe displaced, Replicate (Acid 14, replicate): 0.12

SMILES: O=C1CCSSCCNC(=O)[C@H](Cc2ccccc2)NC(=O)[C@H](CNC(=O)c2ccc(Cl)cc2)NC(=O)c2cccc(c2)CN1 [X B5 D3 F Acid 25]
fraction fluorescent probe displaced, Screen (Acid 25): 0.0244
fraction fluorescent probe displaced, Replicate (Acid 25, replicate): 0.10

Continued, values first:

fraction fluorescent probe displaced, Screen (Acid 25): 0.09
fraction fluorescent probe displaced, Replicate (Acid 25, replicate): 0.12
SMILES: O=C(NC[C@@H]1NC(=O)[C@H]2CCCN(C2)C(=O)CCSSCCNC(=O)[C@H](Cc2ccccc2)NC1=O)c1ccc(Cl)cc1 [X B4 D3 F Acid 25]

fraction fluorescent probe displaced (crude reaction of macrocycle scaffold with Acid 14, (initial screen)): 0.25
fraction fluorescent probe displaced (crude reaction of macrocycle scaffold with Acid 14, replicate): 0.12
SMILES: O=C1NC2(CCN(C(=O)c3ccc(Cl)s3)CC2)C(=O)N[C@@H](Cc2ccccc2)C(=O)NCCSSCCC(=O)N2CCC[C@H]1C2 [X B4 D6 F + Acid 14]

fraction fluorescent probe displaced [1]: 0.0462
fraction fluorescent probe displaced [2]: 0.10
SMILES: O=C1NC2(CCN(C(=O)c3ccc(Cl)cc3)CC2)C(=O)N[C@@H](Cc2ccccc2)C(=O)NCCSSCCC(=O)N2CCC[C@H]1C2 [X B4 D6 F + Acid 25]

fraction fluorescent probe displaced [3]: 0.12
fraction fluorescent probe displaced [4]: 0.12
SMILES: O=C1NC2(CCN(C(=O)/C=C/c3ccccc3)CC2)C(=O)N[C@@H](Cc2ccccc2)C(=O)NCCSSCCC(=O)N2CCC[C@H]1C2 [X B4 D6 F + Acid 91]

fraction fluorescent probe displaced, Screen (Acid 25): 0.38
fraction fluorescent probe displaced, Replicate (Acid 25, replicate): 0.25
SMILES: O=C1NC2(CCN(C(=O)c3ccc(Cl)cc3)CC2)C(=O)N[C@@H](Cc2c[nH]c3ccccc23)C(=O)NCCSSCCC(=O)N2CCC[C@H]1C2 [X B4 D6 W Acid 25]

fraction fluorescent probe displaced, Screen (Acid 91): 0.16
fraction fluorescent probe displaced, Replicate (Acid 91, replicate): 0.09
SMILES: O=C1NC2(CCN(C(=O)/C=C/c3ccccc3)CC2)C(=O)N[C@@H](Cc2c[nH]c3ccccc23)C(=O)NCCSSCCC(=O)N2CCC[C@H]1C2 [X B4 D6 W Acid 91]

fraction fluorescent probe displaced [1]: 0.15
fraction fluorescent probe displaced [2]: 0.10
SMILES: O=C1NCCSSCCC(=O)N2CCCC(C2)C(=O)N2CCN(C(=O)c3ccc(Cl)cc3)CC2C(=O)NC1Cc1ccccc1 (stereo not shown) [X B4 D7 F + Acid 25]

fraction fluorescent probe displaced, Screen (Acid 25): 0.09
fraction fluorescent probe displaced, Replicate (Acid 25, replicate): 0.12
SMILES: O=C(NC[C@@H]1NC(=O)[C@H](Cc2ccccc2)NC(=O)[C@H]2CCCN(C2)C(=O)CCSSCCNC1=O)c1ccc(Cl)cc1 [X B4 F D3 Acid 25]

fraction fluorescent probe displaced, Screen (Acid 25): 0.0569
fraction fluorescent probe displaced, Replicate (Acid 25, replicate): 0.12
SMILES: O=C(NC1CC2C(=O)NCCSSCCC(=O)N3CCCC(C3)C(=O)NC(Cc3ccccc3)C(=O)N2C1)c1ccc(Cl)cc1 (stereo not shown) [X B4 F D5 Acid 25]

fraction fluorescent probe displaced [1]: 0.09
fraction fluorescent probe displaced [2]: 0.17
SMILES: O=C1NC(Cc2ccccc2)C(=O)NC2(CCN(C(=O)c3ccc(Cl)cc3)CC2)C(=O)NCCSSCCC(=O)N2CCCC1C2 (stereo not shown) [X B4 F D6 + Acid 25]

fraction fluorescent probe displaced [3]: 0.08
fraction fluorescent probe displaced [4]: 0.0168
SMILES: O=C1N[C@@H](Cc2ccccc2)C(=O)NC2(CCN(C(=O)/C=C/c3ccccc3)CC2)C(=O)NCCSSCCC(=O)N2CCC[C@H]1C2 [X B4 F D6 + Acid 91]

fraction fluorescent probe displaced, Screen (Acid 25): 0.09
fraction fluorescent probe displaced, Replicate (Acid 25, replicate): 0.10
SMILES: O=C1NC(Cc2ccccc2)C(=O)N2CCN(C(=O)c3ccc(Cl)cc3)CC2C(=O)NCCSSCCC(=O)N2CCCC1C2 (stereo not shown) [X B4 F D7 Acid 25]

fraction fluorescent probe displaced, Screen (Acid 14): 0.08
fraction fluorescent probe displaced, Replicate (Acid 14, replicate): 0.22
SMILES: O=C1N[C@@H](Cc2c[nH]c3ccccc23)C(=O)NC2(CCN(C(=O)c3ccc(Cl)s3)CC2)C(=O)NCCSSCCC(=O)N2CCC[C@H]1C2 [X B4 W D6 Acid 14]

fraction fluorescent probe displaced, Screen (Acid 25): 0.22
fraction fluorescent probe displaced, Replicate (Acid 25, replicate): 0.20
SMILES: O=C1N[C@@H](Cc2c[nH]c3ccccc23)C(=O)NC2(CCN(C(=O)c3ccc(Cl)cc3)CC2)C(=O)NCCSSCCC(=O)N2CCC[C@H]1C2 [X B4 W D6 Acid 25]

fraction fluorescent probe displaced, Screen (Acid 25): 0.25
fraction fluorescent probe displaced, Replicate (Acid 25, replicate): 0.17
SMILES: O=C1NC(Cc2c[nH]c3ccccc23)C(=O)N2CCN(C(=O)c3ccc(Cl)cc3)CC2C(=O)NCCSSCCC(=O)N2CCCC1C2 (stereo not shown) [X B4 W D7 Acid 25]

— publication PMC9250534, “Synthesis and direct assay of large macrocycle diversities by combinatorial late-stage modification at picomole scale” (Nature Communications, 2022)
